In article PMC12191924, “A new naphthalene-based fluorogenic substrate for cytochrome P450 4A11” (Biochemical Journal, 2025):
Read-outs that look alike come from different tables or passages of the source.

How the values were obtained:
[1] = test system: pooled human liver microsomes (HLM); test: Substrate saturation profiles of MONACRA metabolism by pooled HLM, global fitting; format: in vitro ADME; conditions: for Km: global fitting of seven pooled HLM preparations
Excerpt: To probe the MONACRA metabolism by the human liver P450 system, we explored the SSPs of our new fluorogenic substrate by seven different pooled HLM preparations with P450 pool composition characterized by a global proteomics toolkit. […] The first two principal components cover 99.4% of the overall differences between the individual SSPs. While the first principal component mainly reflects the differences in SSP amplitude, the second PC is responsible for the changes in the contribution of the high- and low-affinity components. Global fitting of the dataset with a combination of three Michaelis–Menten equations yielded the components with K M values of 21, 213, and 730 µM (Figure 10C). The combinations of these three Michaelis–Menten components approximate all individual SSPs of the dataset with a square correlation coefficient (R ^2) higher than 0.998.
Figure 10: Substrate saturation profiles (SSPs) of 3-(6-methoxynaphthalen-2-yl)acrylic acid (MONACRA) metabolism by seven pooled preparations of human liver microsomes (HLMs) and their global analysis. The HLM preparations used in this study and their designations are described in the “Materials and Methods” section of the article. […] These two principal components cover 99.4% of the overall differences between the SSPs. […] The substance label MONACRA is taken from the axis title, as no other label is printed.
This study used preparations of pooled HLMs from 50, 150, or 200 donors (mixed gender). The preparations CDN, DNJ, and WGP were INVITROCYP 150-Donor Human Liver Microsomes obtained from BioIVT Corporation (Westbury, NY). Lot EGW is INVITROCYP M-Class 50-Donor HLM procured from the same company. Lots 1,910,096 and 1,210,347 were XTreme 200 Mixed Gender HLM (200 donors) purchased from XenoTech LLC (Kansas City, KS), currently a part of BioIVT. Lot 2,110,263 corresponds to mixed gender HLM from 50 donors from the same company. These lots are referred to herein as X096, X347, and X263, respectively. The supplier of the HLM preparations used in our studies, BioIVT Corporation, has declared to adhere to the regulations of the Department of Health and Human Services for the protection of human subjects (45 CFR §46.116 and §46.117) and Good Clinical Practice, (ICH E6) in obtaining the samples of human tissues used for producing the preparations of human subcellular fractions available from these companies.
The MONACRA metabolism experiments were conducted with 12 MONACRA stock solutions in the Incubation Buffer (0.1 M Hepes buffer pH 7.4 containing 60 mM KCl) with concentrations ranging from 0 to 3.3 mM prepared with serial dilution. A 0.3 M stock solution of MONACRA in DMSO was diluted by the Incubation Buffer to prepare the most concentrated (3.3 mM) solution in the series. This series of stock solutions provided the MONACRA concentrations in the incubation mixture decreasing from 825 to 0 µM with a dilution factor of 1.73333 (≈√3). The procedure of preparing the multiwell plates for activity assays was similar to that described earlier for FA-based assays. The prepared plate was placed into a heater-shaker module with a PCR-plate adapter in location 1 of the OT-2 deck. Suspensions of microsomes were diluted to the desired concentration (0.02–0.1 µM P450 for recombinant enzymes and 0.3–1 mg/ml for HLM samples) and placed into all eight wells of the first row of a PCR plate (96-well semi-skirted PCR plate, BrandTech Scientific Inc., Essex, CT), 255 µl per well. The PCR plate was inserted into a pre-cooled PCR-plate cooling block (Eppendorf, Hamburg, Germany) and placed at position 5 of the OT-2 deck. An Azzota deep-well plate placed in location 6 contained 0.4 ml of 0.3 M solution trichloroacetic acid as a quenching reagent. The second row of the same plate contained 0.6 ml of 2.4 molar Na-glycine buffer, pH 10.4. […]

[2] = MONACRA O-demethylation by monkey liver microsomes, FA-AAA formaldehyde assay; format: in vitro ADME, cynomolgus monkey (Macaca fascicularis); conditions: cynomolgus monkey, liver microsomes, MLM, FA assay, 20-min incubation at 30°C
Excerpt: (§1) To probe if MONACRA can be metabolized to hydroxy-naphthyl acrylic acid (HONACRA) by liver microsomes, we utilized our high-throughput fluorimetric assay of formed formaldehyde with acetoacetanylide (FA-AAA assay, [34]). In our initial experiments, we used cynomolgus monkey (Macaca fascicularis) liver microsomes (MLM).
(§2) Figure 3: O-demethylation of 3-(6-methoxynaphthalen-2-yl)acrylic acid (MONACRA) by monkey liver microsomes (MLM). […] Panel B exemplifies the substrate saturation profile of MONACRA demethylation by MLM (0.98 mg/ml) determined by formed formaldehyde with acetoacetanylide (FA-AAA) assay with 20-min incubation at 30°C. The datasets shown in the figures represent averages of the results of two individual experiments, and the error bars indicate the standard deviations.
(§3) MONACRA demethylation was monitored by quantifying the amount of formed formaldehyde using a high-throughput fluorimetric assay based on the Hantzsch reaction with acetoacetanilide. The plates were prepared as described above. The assays were executed as described earlier, except for monitoring the formation of DPDL by the spectra of its emission with excitation at 395 nm instead of the spectra of excitation, as it was described earlier. This modification of the assay procedure was done because of an ample overlap of the spectra of excitation of MONACRA and HONACRA with that of DPDL.

[3] = test system: monkey liver microsomes (MLM); test: as above; format: in vitro ADME, cynomolgus monkey (Macaca fascicularis); conditions: sum of two Michaelis–Menten components
Excerpt: as §1, §2, §3

[4] = across seven pooled HLM preparations

Km ([1]; read-out: KM of high-affinity Michaelis–Menten component): 21 µM
Km ([1]; read-out: KM of low-affinity Michaelis–Menten component): 730 µM
Km ([1]; read-out: KM of middle-affinity Michaelis–Menten component): 213 µM
Km at 20 min ([2]; read-out: KM, first of two Michaelis–Menten components): 28.4 µM
Km at 20 min ([2]; read-out: KM, second of two Michaelis–Menten components): 260 µM
Compound: COc1ccc2cc(C=CC(=O)O)ccc2c1 [MONACRA, 3-(6-methoxynaphthalen-2-yl)acrylic acid]
F 1 (fractional contribution of high-affinity phase) ([1]; HLM sample CDN): 0.1%
F 2 (fractional contribution of middle-affinity phase) ([1]; HLM sample CDN): 68.7%
F 3 (fractional contribution of low-affinity phase) ([1]; HLM sample CDN): 31.2%
F 1 (fractional contribution of high-affinity phase) ([1]; HLM sample DNJ): 0.5%
F 2 (fractional contribution of middle-affinity phase) ([1]; HLM sample DNJ): 91.6%
F 3 (fractional contribution of low-affinity phase) ([1]; HLM sample DNJ): 7.9%
F 1 (fractional contribution of high-affinity phase) ([1]; HLM sample EGW): 2.5%
F 2 (fractional contribution of middle-affinity phase) ([1]; HLM sample EGW): 97.5%
F 3 (fractional contribution of low-affinity phase) ([1]; HLM sample EGW): 0.0%
F 1 (fractional contribution of high-affinity phase) ([1]; HLM sample WGP): 0.0%
F 2 (fractional contribution of middle-affinity phase) ([1]; HLM sample WGP): 34.4%
F 3 (fractional contribution of low-affinity phase) ([1]; HLM sample WGP): 65.6%
F 1 (fractional contribution of high-affinity phase) ([1]; HLM sample X096): 9.8%
F 2 (fractional contribution of middle-affinity phase) ([1]; HLM sample X096): 0.0%
F 3 (fractional contribution of low-affinity phase) ([1]; HLM sample X096): 90.2%
F 1 (fractional contribution of high-affinity phase) ([1]; HLM sample X263): 21.7%
F 2 (fractional contribution of middle-affinity phase) ([1]; HLM sample X263): 21.5%
F 3 (fractional contribution of low-affinity phase) ([1]; HLM sample X263): 56.8%
fraction of the high-affinity phase, average [1, 4]: 5.5%
fraction of the lowest affinity component, average [1, 4]: 45.3%
fraction of the lowest affinity component, range [1, 4]: 0–90%
fraction of the middle-affinity phase, average [1, 4]: 49.2%
fraction of the middle-affinity phase, range [1, 4]: 0–100%
total Vmax [3]: 17.2 mol FA per mol of NADPH-cytochrome P450 reductase (CPR) per minute
